Data on 7 compounds can be found in ChEMBL document CHEMBL1138112, “Indoloprodigiosins from the C-10 bipyrrolic precursor: new antiproliferative prodigiosin analogs” (Bioorg Med Chem Lett, 2006).

Common to all, as to format: functional, cell-based
Conditions in all cases: Homo sapiens

One assay relates to HT-29. Nature of the assay: Antiproliferative activity against HT29 cell line by MTS assay. (Tetrazolium dyes change colour on reduction, which living cells bring about.)
Another assay concerns DLD-1. Nature of the assay: Antiproliferative activity against DLD1 cell line by MTS assay.
Another assay has as its system MDA-MB-231. The assay can be described thus: Antiproliferative activity against MDA-MB-231 cell line by MTS assay.
A further assay relates to NCI-H460. The assay can be described thus: Antiproliferative activity against NCI-H460 cell line by MTS assay.
For the next assay, the system named is A549. The assay can be described thus: Antiproliferative activity against A549 cell line by MTS assay.

On to `COc1cc(-c2ccc[nH]2)[nH]c1/C=C1\C(C)=Nc2ccccc21`, for which the concentration for half-maximal inhibition (IC50) (as a rule, the concentration that inhibits the measured activity by half) with HT-29 stood at 36.2 µM; in the assay on DLD-1, 63.2 µM; in the assay with MDA-MB-231, 47.4 µM; with NCI-H460 it was 21.6 µM; in the assay on A549, 54.6 µM.
With `COC1=CC(c2ccc[nH]2)=N/C1=C\c1[nH]c(-c2ccc[nH]2)cc1OC`, the half-inhibitory concentration (IC50) with HT-29 is 13.5 µM; in the assay with DLD-1 it was 7.74 µM; in the assay with MDA-MB-231 it was 12.8 µM; in the assay on NCI-H460, 3.45 µM; with A549, 6.45 µM.
`COc1cc(-c2ccc[nH]2)[nH]c1/C=C1/C=C2CCCCC2=N1`: the IC50 in the assay with HT-29 was 0.781 µM; in the assay on DLD-1 it was 0.446 µM; in the assay with MDA-MB-231 it was 1.38 µM; in the assay on NCI-H460, 0.23 µM; in the assay on A549 it was 0.487 µM.
On the same counts, the results for `COc1cc(-c2ccc[nH]2)[nH]c1/C=C1\C=Nc2ccccc21` are 4.68 µM, 6.02 µM, 9.35 µM, 4.06 µM and 6.61 µM.
Regarding `CCC1CCCCCCCCC2=N/C(=C\c3[nH]c(-c4ccc[nH]4)cc3OC)C1=C2` (stereo not given) [METACYCLOPRODIGININE], the IC50 in the assay with HT-29 was 1.7 µM; in the assay with DLD-1, 1.78 µM; with MDA-MB-231 it was 5.21 µM; in the assay on NCI-H460, 0.33 µM; in the assay on A549, 1.25 µM.
With `CCCCCC1=C/C(=C/c2[nH]c(-c3ccc[nH]3)cc2OC)N=C1C` [PRODIGIOSIN], the IC50 in the assay with HT-29 stood at 0.173 µM; in the assay with DLD-1, 0.079 µM; in the assay on MDA-MB-231, 0.213 µM; in the assay with NCI-H460 it was 0.032 µM; in the assay with A549, 0.077 µM.
In the same order, the values of `COc1cc(-c2ccc[nH]2)[nH]c1/C=C1\C(C)=Nc2ccc(C)cc21` are 12.3 µM, 16.7 µM, 23.2 µM, 10.8 µM and 14.3 µM.
